Test: Sensory evaluation of saltiness enhancing effect in aqueous salt solution (Experiments 2 and 3); further: key: A test sample for which the majority of the expert panelists evaluated as having a stronger saltiness than the control sample was determined as having a saltiness enhancing effect (Good); a sample for which they did not so was determined as having no saltiness enhancing effect (Bad); *2: Undetermined whether saltiness was enhanced or not due to strong bitterness
Type: in vivo, human
Description: The preparation of 3″-α-GN prepared in Experiment 1, Sunphenon EGCg-OP (from Taiyo Kagaku Co., Ltd., epigallocatechin gallate (EGCg), 95.3% pure), naringin (from Sichuan Xinhua Health Biotechnology Co., Ltd., 98.2% pure) or Hayashibara Hesperidin S (from Hayashibara Co., Ltd., monoglucosyl hesperidin, 82.1% pure), and salt (from The Salt Industry Center of Japan, the purity of sodium chloride was 99% or higher) were dissolved in pure water to give concentrations as shown in Table 1 below for preparing aqueous solutions of a control sample and test samples 1-1 to 1-5. Then, 9 panelists competent in food sensory evaluation who had passed the five-taste test (hereinafter referred to as “expert panelists”) conducted sensory evaluation tests on the test samples. Specifically, each of the expert panelists held a room-temperature control sample and a room-temperature test sample in her/his mouth and evaluated whether the saltiness of the test sample was weaker, similar, or stronger than that of the control sample, and recorded the overall taste.
Control samples 2 and 3 and test samples 9 and 10 were prepared as in Experiment 2, except that the concentrations of 3″-α-GN and salt were changed as shown in Table 2 below. Sensory evaluation tests were then conducted as in Experiment 2 to evaluate the intensity of saltiness of the test samples including 3″-α-GN as compared with the control samples of the same salt concentrations.

[1] = 5 ppm in water, salt 0.5 mass % (test samples 3, 6, 7)

Q: With “monoglucosyl hesperidin [reference compound]” as the compound, how does the Saltiness enhancing effect (4 ppm in water, salt 0.5 mass % (test sample 8)) read?
A: Bad

Q: With `C[C@@H]1O[C@@H](O[C@H]2[C@H](Oc3cc(O)c4c(c3)O[C@H](c3ccc(O)cc3)CC4=O)O[C@H](CO)[C@@H](O)[C@@H]2O)[C@H](O)[C@H](O)[C@H]1O` [Naringin, naringin, reference compound] as the compound, how does the Saltiness enhancing effect [1] read?
A: Bad

Q: Which Saltiness enhancing effect [1] does the source give for `O=C(O[C@@H]1Cc2c(O)cc(O)cc2O[C@@H]1c1cc(O)c(O)c(O)c1)c1cc(O)c(O)c(O)c1` [EGCg, epigallocatechin gallate, reference compound] here?
A: Bad

Q: Which results are given for `CC1O[C@@H](OC2C(O[C@H]3OC(CO)[C@@H](O)C(O)C3O)[C@H](O)C(CO)O[C@H]2Oc2cc(O)c3c(c2)OC(c2ccc(O)cc2)CC3=O)C(O)C(O)[C@H]1O` (stereo partly drawn) [3″-α-GN, 3″-α-monoglucosyl naringin]?
A: Saltiness enhancing effect (0.1 ppm in water, salt 0.5 mass %, G/S 0.02×10^−3 (test sample 1 vs control sample 1)): Good; Saltiness enhancing effect (1 ppm in water, salt 0.5 mass %, G/S 0.2×10^−3 (test sample 2)): Good; Saltiness enhancing effect (1 ppm in water, salt 1 mass %, G/S 0.1×10^−3 (test sample 9 vs control sample 2)): Good; Saltiness enhancing effect (1 ppm in water, salt 2 mass %, G/S 0.05×10^−3 (test sample 10 vs control sample 3)): Good; Saltiness enhancing effect [1]: Good; Saltiness enhancing effect (10 ppm in water, salt 0.5 mass %, G/S 2.0×10^−3 (test sample 4)): Good; Saltiness enhancing effect (40 ppm in water, salt 0.5 mass %, G/S 8.0×10^−3 (test sample 5)): *2

From patent US20250000128A1, “SALTINESS ENHANCING COMPOSITION, AND COMPOSITION FOR ORAL USE AND METHOD OF ENHANCING SALTINESS THEREOF” (Nagase Viita Co., Ltd., priority 2021, published 2025)
